Measured values published in US20100278782A1, “DIFFERENTIATION OF RAT LIVER EPITHELIAL CELLS INTO HEPATOCYTE-LIKE CELLS” (Vrije Universiteit Brussel, priority 2006, published 2010).

Columns and labels:
[1] = tested on: HDAC; conditions: literature statement; cited from earlier work
[2] = tested on: HNF-4; test: LETF immunofluorescence during hepatic differentiation of RLECs; type: cell-based, rat; conditions: TSA added to Sequential 3 differentiation protocol
Protocol: (§1) A: HNF-3b, B: HNF-4, C: HNF-1a, a: with DAPI counterstain, b: without DAPI counterstain.
(§2) • rinse cells 3× with PBS • fix nuclear and cytoplasmic proteins at room temperature for 10 min with 4% PFA (cold), connexins at −20° C. for 10 min with Ethanol/Aceton (50/50) and cytoskeletal proteins at −20° C. for 10 min with Ethanol. • wash 3×5 min with PBS • proceed with staining or store wells in PBS at 4° C. • check cells under microscope for autofluorescence and attachment • incubate 15 min with 100 mM glycin in PBS (used to saturate reactive groups generated after PFA fixation) • wash 3×5 min with PBS • incubate 15 min with PBST (permeabilization) • rinse 3× with PBS • block 45 min with block buffer at room temperature • incubate overnight at 4° C. with primary Ab diluted in PBS • rinse with PBS • wash 4×15 min with PBS • incubate with fluorescence-labeled secondary Ab 1 h 30 at room temperature (dilute Ab in PBS) • keep dark • wash 4×15 min with PBST • rinse with distilled water • mount with Vectashield with DAPI (use 3 drops per well)
(§3) For this experiment, the protocols of example 5 were used to differentiate RLECs towards the hepatic lineage with the exception of the sequential procedure. Sequential 3 from example 6 was used to differentiate the cells instead of the one stated in example 5. The immunofluorescence protocol-staining on cultured cells was used as stated in example 8.

[3] = tested on: HNF-3β; test: as above; type: cell-based, rat; conditions: TSA added to Sequential 3 differentiation protocol
Protocol: as §1, §2, §3

[4] = tested on: HNF-1α; test: as above; type: cell-based, rat; conditions: TSA added to Sequential 3 differentiation protocol
Protocol: as §1, §2, §3

[5] = tested on: RLEC; test: Morphology of RLEC differentiated in the presence of an HDAC inhibitor; type: cell-based, rat
Protocol: FIG. 15 illustrates morphology of RLEC differentiated in the presence of an HDAC inhibitor, as explained in example 13.
RLEC at 100% confluence are used for differentiation into hepatocyte-like cells: • after sub-cultivation, detach cells as described above and suspend all cells derived from 1 T75 and 1 T150 in 3 ml and 6 ml of new growth medium (37° C.), respectively. • homogenize the cell suspension by pipetting up and down. • add 420 μl growth medium to a 2 cm^2-well • transfer 80 μl of cell suspension to the middle of a 2 cm^2-well, precoated with 50-100 μg/ml collagen type I • tap to homogenize cell suspension; check cells under microscope • incubate cells at 37° C. in growth medium until cells have reached 100% confluence. • At 100% confluence, remove growth medium and expose cells to basal medium supplemented with liver specific factors, as follows: 1. days 0-1: 10 ng/ml FGF-4 2. days 1-3: 10 ng/ml FGF-4, 20 ng/ml HGF 3. days 3-6: 5 ng/ml FGF-4, 30 ng/ml HGF, 0.5×ITS 4. days 6-9: 30 ng/ml HGF, 0.25×ITS; 0.05 μM dexamethasone 5. days 9-12: 20 ng/ml HGF, 0.05 μM dexamethasone 6. days 12-15: 10 ng/ml HGF; 10 ng/ml OSM, 0.05 μM dexamethasone 7. From day 15 on: 10 ng/ml OSM, 0.05 μM dexamethasone
RLEC are differentiated without initial FGF-4 exposure, according to the following sequence:
1. days 0-3: 20 ng/ml HGF 2. days 3-6: 5 ng/ml FGF-4, 30 ng/ml HGF, 0.5×ITS 3. days 6-9: 30 ng/ml HGF, 0.25×ITS; 0.05 μM dexamethasone 4. days 9-12: 20 ng/ml HGF, 0.05 μM dexamethasone 5. days 12-15: 10 ng/ml HGF; 10 ng/ml OSM, 0.05 μM dexamethasone 6. From day 15 on: 10 ng/ml OSM, 0.05 μM dexamethasone
The results are illustrated in FIG. 15. […] The cells still have the characteristic RLEC shape. […] Optimisation of HDAC inhibitor concentration to reduce cell death is within the reach of a skilled person.

[6] = tested on: rat hepatocyte HDAC; test: Fluor de Lys HDAC inhibition assay in crude rat hepatocyte lysates; type: biochemical; conditions: Fluor de Lys substrate, n = 3 or 4, read-out: Estimated IC50 values for tested compounds
Protocol: Screening of the HDAC inhibiting potencies of the above compounds was performed in crude rat hepatocyte lysates, prepared from freshly isolated cells, using the Fluor de Lys HDAC inhibition assay as detailed in example 9.
A two-step collagenase perfusion technique was used to isolate hepatocytes from male outbred Sprague-Dawley rats (200-300 g; Charles River Laboratories, Brussels, Belgium), which were kept under controlled environmental conditions (12 h light-dark cycle) and fed a standard diet (Animalabo A 04) with water ad libitum. Procedures for housing of the animals, and for isolation and cultivation of the rat hepatocytes were approved by the local ethical committee of the Vrije Universiteit Brussel (VUB, Brussels, Belgium).
Inhibition of HDAC activity was assessed in crude rat hepatocyte lysates by the Fluor de lys HDAC inhibition protocol as outlined herein:
HDAC Fluorescent Activity Assay/Drug Discovery Kit, Tebu-bio, AK-500.
• HDAC: thaw a rat hepatocyte cell extract (containing 6 mg/ml proteins) in tap water at room temperature, store on ice. • HDAC inhibitor:
Prepare a dilution series in assay buffer.
• Add 500 μl homogenisation buffer to 30×10^6 hepatocytes (pellets stored at −80° C.). • Ultrasonicate on ice 2×30 pulses • Let the homogenate(s) rest on ice during 5 min. • Transfer the homogenate(s) to 1.5 ml eppendorf tube(s) on ice, vortex vigorously. • Centrifugate at 14000 rpm in the microcentrifuge during 5 min at 4° C. • Determine the protein concentration (Bradford protein assay) of the supernatant, discard the pellets. • Dilute the extract(s) to a protein concentration of 6 mg/ml. Divide in aliquots of 500 μl (eppendorf tubes) and store for later use at −80° C.
1. bring 10 μl inhibitor/control solvents/assay buffer per well 2. add 15 μl cell extract to each well (for the blank: 15 μl boiled cell extract) 3. incubate 5 min at room temperature (cover plate with aluminium foil) 4. add 25 μl Fluor de Lys substrate to each well (40 μM solution, […]) 5. cover the plate with aluminium foil and incubate 15 min on orbital shaker 6. after 15 min, add 50 μl freshly prepared, ice-cold developer solution to each well 7. cover the plate with aluminium foil and incubate 15 min on orbital shaker 8. Measure the fluorescence in the plate reader
• Subtract the blank value (boiled extract) (background signal) • Calculate as % of ethanol control, that is set 100% • If the concentrations are spread around the 50% inhibition value, than the IC50 value can be calculated. […] (Note: the concentration should be set out as their logarithmic values)

[7] = tested on: freshly isolated rat hepatocytes; conditions: incubated with freshly isolated rat hepatocytes, compared with TSA; cited from earlier work
[8] = tested on: primary rat hepatocytes; test: Inhibition of DNA synthesis (3H-methylthymidine incorporation) in EGF-stimulated primary rat hepatocytes; type: cell-based; conditions: DNA synthesis at day 3 (72 h), EGF 50 ng/ml
Protocol: Results are expressed as percentage of positive control (untreated cells cultured in the presence of mitogen). Total inhibition of hepatocyte proliferation is considered when DNA synthesis of treated cells equals DNA synthesis level of negative control (untreated cells cultivated in the absence of mitogen). Results shown are the means±SD from 4 or more independent experiments.
Screening of the anti-proliferative activity of the above compounds (effect on DNA synthesis) was performed as in example 10a.
The maximal (100%) inhibition of rat primary hepatocyte proliferation has been achieved with following concentrations:
Dose-dependent inhibition of cell proliferation by Jung-type HDACi after 3 days of incubation. Hepatocytes (0.4×10^5 cells/cm^2) were cultured in duplicate in a mixture of MEM/M199 (3:1, v/v) and stimulated to proliferate with EGF (50 ng/ml) 4 h after plating. Exposure to the indicated concentrations of HDACi started at time of plating and was maintained for 3 consecutive days. ^3H-methylthymidine incorporation was measured at day 3 (72 h) of culture. Cells cultured in the absence of EGF serve as a negative control for hepatocyte proliferation (neg. contr.) whereas cells stimulated with EGF alone serve as a positive control for hepatocyte proliferation (pos. contr.). Results are expressed as the percentage of maximal incorporation observed in hepatocytes cultured in the presence of EGF alone. Values shown are the means±SD of duplicate cultures of 3 experiments.

[9] = tested on: primary rat hepatocytes; test: Location of cell cycle arrest in primary rat hepatocytes from cell cycle marker expression; type: cell-based; conditions: 3 days incubation; absence of cyclin D1 and cdk1 protein expression, prior to the restriction point
Description: Assessed as in example 11a.
The effect of the different 6C-spacer compounds on the expression of key cell cycle proteins was investigated as well in order to identify the location of the cell cycle arrest.
Two cell cycle markers were studied as detailed in example 11a (see FIG. 8 for results): (a) cyclin D1, this protein is typically expressed when hepatocytes were able to pass the restriction point located in the mid-late G1 phase; and (b) cdk1, which is a marker for the S/G2/M phase (DNA synthesis takes place in the S phase).
Hepatocytes (0.4×10^5 cells/cm^2) were cultured in duplicate in a mixture of MEM/M199 (3:1; v/v) and stimulated to proliferate with EGF (50 ng/ml) 4 h after plating. Exposure to the indicated concentrations of HDACi started at time of plating and was maintained for 3 consecutive days: Cells were then harvested and analyzed for cyclin D1 and cdk1 expression levels (20 μg proteins/lane). Total ERK staining serves as a loading control.

[10] = tested on: CYP1 A1; test: Expression of CYP450 isoforms in rat primary hepatocytes; type: cell-based; conditions: 4 days exposure; expression lost in untreated controls
Protocol: (§4) Measured as in example 11b.
(§5) Furthermore, pro-differentiating effect of AN-6, AN-8 and AN-10 was examined as described in example 11b. Namely, the expression of phase I biotransformation markers, CYP 450 isoforms was examined. […] In comparison, the expression of latter proteins was lost in controls (untreated cells).
(§6) Hepatocytes (0.57×10^5 cells/cm^2) were cultured in Williams' E medium supplemented with insulin (0.5 μg/ml), glucagon (7 ng/ml) and hydrocortisone (25 μg/ml). Exposure to the indicated concentrations of HDACi started at time of plating and was maintained for 4 consecutive days. Cells were harvested at indicated time points and analyzed for CYP2 B1 and CYP1 A1 expression levels (40 μg proteins/lane).

[11] = tested on: CYP2 B1; test: as above; type: cell-based; conditions: 4 days exposure; expression lost in untreated controls
Protocol: as §4, §5, §6

Row | Structure (SMILES) | IC50 [6] [nM] | Concentration achieving maximal (100%) inhibition of rat primary hepatocyte proliferation [8] [µM] | Cell cycle arrest [9] | also measured
1 | CC(/C=C/C(=O)NO)=C\[C@@H](C)C(=O)c1ccc(N(C)C)cc1 [TSA, Trichostatin A] | – | – | – | HDAC inhibitory activity [1]: potent specific inhibitor of Class I and Class II HDAC in vitro and in vivo; HNF-4 expression and activity [2]: expressed and active from D3 onwards, either with or without addition of TSA; HNF-3β expression and localisation [3]: already expressed at D3 of the differentiation process and is located inside the nucleus; HNF-1α expression and localisation [4]: induces expression of HNF-1α in nucleus already on D3; Morphology of differentiating RLEC ([5]; 320 nM, D2, example 13 sequence): more polygonal shape; Morphology of differentiating RLEC ([5]; 1 μM, D9, example 13 sequence): differentiate into binuclear, polygonal to cuboidal shaped cells; Cell death of differentiating RLEC ([5]; 1 μM, example 13 sequence): causes some cell death; Morphology of differentiating RLEC ([5]; protocol of example 5 with TSA addition): more fibroblast like shape
2 | O=C(CCCCCNC(=O)c1ccc(N2CCCCC2)cc1)NO [AN-15] | 500 ± 108 | – | – | –
3 | CN(C)c1ccc(C(=O)NCCCCC(=O)NO)cc1 | – | – | – | HDAC inhibitory activity [1]: potent HDAC inhibitor; Metabolic stability [7]: metabolically more stable than TSA
4 | O=C(CCCCCNC(=O)c1ccc(Cl)cc1)NO [AN-7] | 84 ± 27 | – | – | –
5 | O=C(CCCCNC(=O)c1cc2ccccc2[nH]1)NO [AN-9] | 313 ± 50 | – | – | –
6 | CN(C)c1ccc(C(=O)NCCCCC(=O)NO)cc1 [AN-1, 5-(4-dimethylaminobenzoyl)-aminovaleric acid hydroxamid] | 301 ± 28 | 50 | – | –
7 | O=C(CCCCNC(=O)c1ccc(N2CCCCC2)cc1)NO [AN-13] | 2250 ± 616 | – | – | –
8 | O=C(CCCCCNC(=O)c1ccccc1)NO [AN-5] | – | 50 | able to induce a similar early G1 cell cycle arrest | –
9 | O=C(CCCCCNC(=O)c1ccc(N2CCOCC2)cc1)NO [AN-16] | 1010 ± 310 | – | – | –
10 | O=C(CCCCNC(=O)c1ccc(N2CCOCC2)cc1)NO [AN-14] | 4490 ± 1820 | – | – | –
11 | O=C(CCCCCNC(=O)c1ccc(N2CCCC2)cc1)NO [AN-8] | 55 ± 19 | 7.5 | induced an early G1 cell cycle arrest | –
12 | O=C(CCCCCNC(=O)c1cc2ccccc2[nH]1)NO [AN-10] | 14 ± 4 | 7.5 | induced an early G1 cell cycle arrest | CYP1 A1 expression during the entire culture period [10]: remarkable ability to maintain
13 | CN(C)c1ccc(C(=O)NCCCCCC(=O)NO)cc1 [AN-6, 6-(4-dimethylaminobenzoyl)-aminocaproic acid hydroxamid] | 24 ± 2 | 10 | induced an early G1 cell cycle arrest | CYP2 B1 expression during the entire culture period [11]: remarkable ability to maintain
